This is an account of results in paper PMC7914897, “Cytotoxic Potential of a-Azepano- and 3-Amino-3,4-SeCo-Triterpenoids” (International Journal of Molecular Sciences, 2021).

Broadly, the GI50 is the concentration that inhibits growth by half. Higher therefore signals lower sensitivity of the cells.

The subject of one assay is HL-60(TB) (Leukemia). Kind of assay: NCI-60 screen (SRB, 48 h). Format: cell-based. The following applies: Homo sapiens; for CC50: read-out: LC50 (the source's name); for IC (TGI): 48 h.
In another assay the test system is OVCAR-3 (Ovarian cancer). The following applies: OVCAR-3, 1 dose 10 µM.
The subject of the next assay is A375 cells. Nature of the assay: Annexin V/PI flow cytometry. The conditions noted are these: A375, 48 h, 2 × EC50. In kind it is cell-based, human. The method, then: Due to its good cytotoxic properties, compound 11 was subjected to flow cytometric measurements (Annexin V/PI assay).
Thereby, the BL1-A signal corresponds to the FITC signal for annexin V (x-axis) while PI is detected at BL3-A (y-axis). Thus, cells in R1 correspond to necrotic cells, those in R2 to late apoptosis, cells in R3 are viable cells, and cells in R4 have died from apoptosis.
Approximately 600,000 cells (A375) were seeded in cell culture flasks and were allowed to grow for 1 day. After removing of the medium, the substance loaded medium was added, and the flasks were incubated for 48 h. All cells were harvested, centrifuged (1200 rpm, 5 min), and washed twice (PBS (w/w)). Approximately 100,000 cells were washed with annexin V bounding buffer (BD Biosciences®) and treated with a propidium iodide solution (3 μL, 1 mg/mL) and annexin V (5 μL, BD Biosciences®) for 15 min at room temperature in the dark. After adding annexin V bounding buffer (400 μL) the suspension was submitted to a FACS measurement.
(A flow cytometer gives signals particle by particle.)

Consider `CC1(C)CC[C@]2(CO)CC[C@]3(C)C(=CC[C@@H]4[C@@]5(C)CCCNC(C)(C)[C@@H]5CC[C@]43C)[C@@H]2C1` [Compound 3, azepanoerythrodiol], for which, in the assay on HL-60(TB) (Leukemia), the GI50 came to 1.95 µM and the CC50 is over 100 µM.

With `CC1(C)NCCC[C@]2(C)[C@H]3C=CC4=C5C[C@@](C)(CO)CC[C@]5(C)CC[C@@]4(C)[C@]3(C)CC[C@@H]12` [Compound 6, azepano-glycyrrhetol-diene], in the assay on HL-60(TB) (Leukemia), the GI50 worked out at 2.63 µM, the IC (TGI) was 7.02 µM and the CC50 amounted to 32.6 µM.

Regarding `C=C(C)[C@@H]1CCC=C2CC[C@]3(C)[C@H](CC[C@@H]4[C@@]5(C)CCCNC(C)(C)[C@@H]5CC[C@]43C)[C@H]21` [Compound 8], the “Growth % of the Most Sensitive Cell Lines” value in the assay with OVCAR-3 (Ovarian cancer) is recorded as −93.30%.

For the compound `CC(C)=C1CCC=C2CC[C@]3(C)[C@H](CC[C@@H]4[C@@]5(C)CCCNC(C)(C)[C@@H]5CC[C@]43C)[C@H]21` [Compound 9], in the assay on HL-60(TB) (Leukemia), it took 1.7 µM to inhibit growth by half (GI50), the IC (TGI) worked out at 3.5 µM and the CC50 turned out to be 7.19 µM.

As to `C=C(C)[C@@H]1CC[C@]2(C(=O)N[C@H](CO)Cc3ccccc3)CC[C@]3(C)[C@H](CC[C@@H]4[C@@]5(C)CCCNC(C)(C)[C@@H]5CC[C@]43C)[C@@H]12` [Compound 11], in the assay on A375 cells, the “cells died by apoptosis (R4)” value turned out to be 44.3% and the “necrotic cells (R1)” value came out at 1.1%. Besides, in the assay on HL-60(TB) (Leukemia), the GI50 was found to be 0.2 µM and the IC (TGI) stood at 0.46 µM. For the same compound, the “Growth % of the Most Sensitive Cell Lines” value with OVCAR-3 (Ovarian cancer) is recorded as −95.88%.

In the assay with HL-60(TB) (Leukemia), `C[C@H]1[C@H](C)CC[C@]2(C(=O)Nc3ccc4ncccc4c3)CC[C@]3(C)C(=CC[C@@H]4[C@@]5(C)CCCNC(C)(C)[C@@H]5CC[C@]43C)[C@H]12` [Compound 14] registered a GI50 of 1.64 µM and an IC (TGI) of 3.63 µM.

In the assay with HL-60(TB) (Leukemia), `Cc1ccc(S(=O)(=O)OC[C@]23CCC(C)(C)C[C@H]2C2=CC[C@@H]4[C@@]5(C)CCCNC(C)(C)[C@@H]5CC[C@@]4(C)[C@]2(C)CC3)cc1` [Compound 15] gave a GI50 of 1.85 µM and an IC (TGI) of 4.06 µM.

Take `Cc1ccc(S(=O)(=O)OC[C@@]2(C)CC[C@]3(C)CC[C@]4(C)C(=C3C2)C=C[C@@H]2[C@@]3(C)CCCNC(C)(C)[C@@H]3CC[C@]24C)cc1` [Compound 16]: in the assay with HL-60(TB) (Leukemia), the GI50 is 1.98 µM and the IC (TGI) amounted to 4.02 µM.

Regarding `C=C(C)[C@@H]1CC[C@]2(C)[C@H](CC=C3[C@@H]4[C@@H](C)[C@H](C)CC[C@]4(CO)CC[C@]32C)[C@@]1(C)CCCN` [Compound 19], in the assay on HL-60(TB) (Leukemia), the GI50 was found to be 1.03 µM, the IC (TGI) was found to be 2.27 µM and the CC50 stood at 5 µM.

Take `C=C(C)[C@@H]1CC[C@]2(C)[C@H](C=CC3=C4C[C@@](C)(CO)CC[C@]4(C)CC[C@]32C)[C@@]1(C)CCCN` [Compound 20]: in the assay on HL-60(TB) (Leukemia), halving of growth (GI50) required 1.58 µM and the IC (TGI) is 3.62 µM.
